Legend:
[1] = test system: autoimmune angiitis model; conditions: Non-patent Document 6; cited from earlier work
[2] = test system: dendritic cells derived from C57BL/6 mouse bone marrow cells; assay: Expression of costimulatory molecules CD40, CD80, CD86 by flow cytometry (MFI) on matured dendritic cells; format: cell-based
Method: (§1) The C57BL/6 mouse bone marrow cells were cultured for 7 days in 10% FCS-RPMI1640 medium containing 20 ng/mL GM-CSF (Peprotech, origin: rabbit) and 20 ng/mL IL-4 (Peprotech, origin: rabbit) so as to cause the cells to differentiate into dendritic cells. Subsequently, 20 ng/mL TNF-α (Peprotech, origin: rabbit) was added for maturation. Treatment with NK026680 was performed by adding 50 ng/mL NK026680 on days 2 and 4 of culture and adding 250 ng/mL NK026680 on day 6 of culture.
The BALB/c mouse-derived spleen cell extract was added to dendritic cells derived from bone marrow cells which were collected from the C57BL/6 mouse, thereby causing cells to present a BALB/c antigen. The effect of incorporating the BALB/c antigen was confirmed by measuring the expression of 1-Ad (antibody: BD pharmingen), which is a BALB/c major histocompatibility complex (MHC), by flow cytometry. At this time, cells were cultured in the presence or the absence of NK026680, and the cells were allowed to mature with TNF-α (Peprotech, origin: rabbit). Maturation of dendritic cells was confirmed by flow cytometric analysis of the expression of the mature dendritic cell marker. Fluorescence-labeled antibodies against CD40, CD80 and CD86 costimulatory molecules were reacted in NK026680-treated dendritic cells (NK-DC) of the present invention and untreated dendritic cells (CTR-DC). Mean fluorescence intensity (MFI) was measured by flow cytometry, so that the expression levels of CD40, CD80, and CD86 were compared.

[3] = test system: dendritic cells derived from C57BL/6 mouse bone marrow cells; assay: IL-6 and IL-12p40 in culture supernatant of dendritic cells by ELISA; format: cell-based
Method: as §1
In this Example 2, in a manner similar to that in Example 1, the dendritic cells of the present invention treated with NK026680 and untreated dendritic cells, which had been obtained by differentiation and maturation of C57BL/6 mouse bone marrow cells, were obtained. After stimulation with TNF, cells were cultured for 24 hours. The thus obtained culture supernatant was collected, and then the concentrations of immune-response-stimulating cytokines, IL-6 and IL-12p40, were measured by ELISA (BD bioscience) (n=3).

[4] = test system: graft-versus-host disease model; conditions: Non-patent Document 5; cited from earlier work
[5] = test system: dendritic cells; conditions: dendritic cells cultured in the presence of the compound; cited from earlier work

COc1ccc(-c2ccnc3nc(NC(=O)N[C@@H](C)CCCC(C)(C)O)nn23)cc1 [NK026680, (S)-(+)-1-(5-hydroxy-1,5-dimethylhexyl)-3-[7-(4-methoxyphenyl)-[1,2,4]triazolo[1,5-a]pyrimidin-2-yl]urea]
effects against an autoimmune angiitis model [1]: exhibited effects
CD40 (MFI) ([2]; NK026680 50 ng/mL on days 2 and 4, 250 ng/mL on day 6, BALB/c antigen, matured with TNF-α, untreated cells 244): 159 MFI
CD86 (MFI) ([2]; NK026680 50 ng/mL on days 2 and 4, 250 ng/mL on day 6, BALB/c antigen, matured with TNF-α, untreated cells 356): 217 MFI
CD80 (MFI) ([2]; NK026680 50 ng/mL on days 2 and 4, 250 ng/mL on day 6, BALB/c antigen, matured with TNF-α, untreated cells 659): 320 MFI
expression levels of CD40, CD80 and CD86 compared with untreated dendritic cells (CTR-DC) ([2]; in words): lower
IL-6 ([3]; culture supernatant 24 hours after TNF stimulation, n=3, untreated cells 1235 ± 272): 219 ± 94 pg/mL
IL-12p40 ([3]; culture supernatant 24 hours after TNF stimulation, n=3, untreated cells 1555 ± 650): 347 ± 100 pg/mL
concentrations of IL-6 and IL-12p40 in culture supernatant compared with untreated dendritic cells ([3]; in words): lower
effects against a graft-versus-host disease model [4]: exhibited effects
expression level of a costimulatory molecule [5]: decreased

Source: patent publication US20150139971A1, “METHOD FOR PREPARING REGULATORY DENDRITIC CELLS” (NIPPON KAYAKU KABUSHIKI KAISHA, priority 2010, published 2015)
